Key:
3T3-L1 [1] = assay: Induction of insulin-stimulated 2-deoxy-D- 2,6-[3H]-glucose uptake in differentiated mouse 3T3L1 cells at 10 uM compound treated for 20 mins with insulin by liquid scintillation counting (reference value: 100.0 %); type: functional
3T3-L1 [2] = assay: Effect on GlUT4 mRNA expression in mouse 3T3L1 cells at 30 uM on day 8 by RT-PCR relative to beta-actin mRNA expression; type: functional
3T3-L1 [3] = assay: Induction of adiponectin protein secretion in mouse 3T3L1 cells at 30 uM on day 8 by ELISA relative to control; type: functional
3T3-L1 [4] = assay: Induction of adipogenesis in mouse 3T3L1 cells assessed as increase in triglyceride level at 3 uM on day 8 relative to control; type: functional
3T3-L1 [5] = assay: Effect on C/EBPbeta mRNA expression in mouse 3T3L1 cells at 30 uM on day 8 by RT-PCR relative to beta-actin mRNA expression; type: functional
3T3-L1 [6] = assay: Induction of adipogenesis in mouse 3T3L1 cells assessed as increase in triglyceride level on day 8; type: functional, cell-based
3T3-L1 [7] = assay: Effect on GlUT4 mRNA expression in mouse 3T3L1 cells at 10 uM on day 8 by RT-PCR relative to beta-actin mRNA expression; type: functional
3T3-L1 [8] = assay: Effect on PPARgamma2 mRNA expression in mouse 3T3L1 cells at 30 uM on day 8 by RT-PCR relative to beta-actin mRNA expression; type: functional
3T3-L1 [9] = assay: Effect on aP2 mRNA expression in mouse 3T3L1 cells at 3 uM on day 8 by RT-PCR relative to beta-actin mRNA expression; type: functional
3T3-L1 [10] = assay: Effect on adiponectin mRNA expression in mouse 3T3L1 cells at 30 uM on day 8 by RT-PCR relative to beta-actin mRNA expression; type: functional
3T3-L1 [11] = assay: Effect on PPARgamma2 mRNA expression in mouse 3T3L1 cells at 3 uM on day 8 by RT-PCR relative to beta-actin mRNA expression; type: functional
3T3-L1 [12] = assay: Effect on C/EBPalpha mRNA expression in mouse 3T3L1 cells at 30 uM on day 8 by RT-PCR relative to beta-actin mRNA expression; type: functional
3T3-L1 [13] = assay: Induction of adipogenesis in mouse 3T3L1 cells assessed as increase in triglyceride level at 1 uM on day 8 relative to control; type: functional
3T3-L1 [14] = assay: Induction of insulin-stimulated 2-deoxy-D- 2,6-[3H]-glucose uptake in differentiated mouse 3T3L1 cells at 30 uM compound treated for 20 mins with insulin by liquid scintillation counting (reference value: 100.0 %); type: functional
3T3-L1 [15] = assay: Induction of adiponectin protein secretion in mouse 3T3L1 cells at 10 uM on day 8 by ELISA relative to control; type: functional
3T3-L1 [16] = assay: Effect on C/EBPalpha mRNA expression in mouse 3T3L1 cells at 10 uM on day 8 by RT-PCR relative to beta-actin mRNA expression; type: functional
3T3-L1 [17] = assay: Effect on C/EBPbeta mRNA expression in mouse 3T3L1 cells at 3 uM on day 8 by RT-PCR relative to beta-actin mRNA expression; type: functional
3T3-L1 [18] = assay: Effect on PPARgamma2 mRNA expression in mouse 3T3L1 cells at 10 uM on day 8 by RT-PCR relative to beta-actin mRNA expression; type: functional
3T3-L1 [19] = assay: Effect on aP2 mRNA expression in mouse 3T3L1 cells at 10 uM on day 8 by RT-PCR relative to beta-actin mRNA expression; type: functional
3T3-L1 [20] = assay: Effect on C/EBPdelta mRNA expression in mouse 3T3L1 cells at 3 uM on day 8 by RT-PCR relative to beta-actin mRNA expression; type: functional
3T3-L1 [21] = assay: Induction of adipogenesis in mouse 3T3L1 cells assessed as increase in triglyceride level at 0.3 uM on day 8 relative to control; type: functional
3T3-L1 [22] = assay: Induction of adipogenesis in mouse 3T3L1 cells assessed as increase in triglyceride level at 30 uM on day 8 relative to control; type: functional
3T3-L1 [23] = assay: Effect on C/EBPbeta mRNA expression in mouse 3T3L1 cells at 10 uM on day 8 by RT-PCR relative to beta-actin mRNA expression; type: functional
3T3-L1 [24] = assay: Effect on C/EBPdelta mRNA expression in mouse 3T3L1 adipocytes at 30 uM on day 8 by RT-PCR relative to beta-actin mRNA expression; type: functional
3T3-L1 [25] = assay: Effect on aP2 mRNA expression in mouse 3T3L1 cells at 30 uM on day 8 by RT-PCR relative to beta-actin mRNA expression; type: functional
3T3-L1 [26] = assay: Induction of insulin-stimulated 2-deoxy-D- 2,6-[3H]-glucose uptake in mouse 3T3L1 cells chronically treated at 10 uM by liquid scintillation counting (reference value: 100.0 %); type: functional
3T3-L1 [27] = assay: Effect on adiponectin mRNA expression in mouse 3T3L1 cells at 3 uM on day 8 by RT-PCR relative to beta-actin mRNA expression; type: functional
3T3-L1 [28] = assay: Effect on C/EBPdelta mRNA expression in mouse 3T3L1 cells at 10 uM on day 8 by RT-PCR relative to beta-actin mRNA expression; type: functional
3T3-L1 [29] = assay: Effect on GlUT4 mRNA expression in mouse 3T3L1 cells at 3 uM on day 8 by RT-PCR relative to beta-actin mRNA expression; type: functional
3T3-L1 [30] = assay: Effect on adiponectin mRNA expression in mouse 3T3L1 cells at 10 uM on day 8 by RT-PCR relative to beta-actin mRNA expression; type: functional
3T3-L1 [31] = assay: Effect on C/EBPalpha mRNA expression in mouse 3T3L1 cells at 3 uM on day 8 by RT-PCR relative to beta-actin mRNA expression; type: functional
3T3-L1 [32] = assay: Induction of adiponectin protein secretion in mouse 3T3L1 cells at 3 uM on day 8 by ELISA relative to control; type: functional
3T3-L1 [33] = assay: Induction of adipogenesis in mouse 3T3L1 cells assessed as increase in triglyceride level at 10 uM on day 8 relative to control; type: functional
3T3-L1 [34] = assay: Induction of insulin-stimulated 2-deoxy-D- 2,6-[3H]-glucose uptake in mouse 3T3L1 cells chronically treated at 30 uM by liquid scintillation counting (reference value: 100.0 %); type: functional
3T3-L1 [35] = assay: Induction of insulin-stimulated 2-deoxy-D- 2,6-[3H]-glucose uptake in mouse 3T3L1 cells chronically treated at 1 uM by liquid scintillation counting (reference value: 100.0 %); type: functional
3T3-L1 [36] = assay: Induction of adiponectin protein secretion in mouse 3T3L1 cells at 1 uM on day 8 by ELISA relative to control; type: functional
3T3-L1 [37] = assay: Inhibition of insulin-stimulated 2-deoxy-D- 2,6-[3H]-glucose uptake in differentiated mouse 3T3L1 cells compound treated for 20 mins with insulin by liquid scintillation counting (reference value: 100.0 %); type: functional, cell-based

Structure (SMILES)	Activity (3T3-L1 [1]) [%]	Ratio (3T3-L1 [2])	Activity (3T3-L1 [3]) [%]	Activity (3T3-L1 [4]) [%]	Ratio (3T3-L1 [5])	Activity (3T3-L1 [6])	Ratio (3T3-L1 [7])	Ratio (3T3-L1 [8])	Ratio (3T3-L1 [9])	Activity (3T3-L1 [13]) [%]	Activity (3T3-L1 [14]) [%]	Activity (3T3-L1 [15]) [%]	Activity (3T3-L1 [21]) [%]	Activity (3T3-L1 [22]) [%]	Activity (3T3-L1 [26]) [%]	Activity (3T3-L1 [32]) [%]	Activity (3T3-L1 [33]) [%]	Activity (3T3-L1 [34]) [%]	Activity (3T3-L1 [35]) [%]	Activity (3T3-L1 [36]) [%]	other results
COc1ccc(-c2oc3cc(OC)cc(OC)c3c(=O)c2OC)cc1 [TETRAMETHYLKAEMPFEROL]	62.7	2.61	136.7	24.1	3.14	Dose-dependent effect	2.54	2.11	1.53	19.1	46	164.7	10.1	33.7	163.1	149.5	28.2	135.8	146.5	144.6	Ratio (3T3-L1 [10]): 2.9; Ratio (3T3-L1 [11]): 1.67; Ratio (3T3-L1 [12]): 1.82; Ratio (3T3-L1 [16]): 2.08; Ratio (3T3-L1 [17]): 1.34; Ratio (3T3-L1 [18]): 1.81; Ratio (3T3-L1 [19]): 2.02; Ratio (3T3-L1 [20]): 0.89; Ratio (3T3-L1 [23]): 1.89; Ratio (3T3-L1 [24]): 0.77; Ratio (3T3-L1 [25]): 2.24; Ratio (3T3-L1 [27]): 1.81; Ratio (3T3-L1 [28]): 1.23; Ratio (3T3-L1 [29]): 2.38; Ratio (3T3-L1 [30]): 2.05; Ratio (3T3-L1 [31]): 1.88
COc1cc(OC)c2c(=O)c(OC)c(-c3ccc(OC)c(OC)c3)oc2c1	65.5	3.62	128.1	26.2	3.82	Dose-dependent effect	2.25	2.42	1.34	17.7	35.9	131.4	9.4	27.4	152.9	156.8	27	127.3	129.9	137.8	Ratio (3T3-L1 [10]): 2.59; Ratio (3T3-L1 [11]): 1.84; Ratio (3T3-L1 [12]): 1.38; Ratio (3T3-L1 [16]): 1.5; Ratio (3T3-L1 [17]): 1.73; Ratio (3T3-L1 [18]): 1.99; Ratio (3T3-L1 [19]): 1.59; Ratio (3T3-L1 [20]): 1.54; Ratio (3T3-L1 [23]): 3.01; Ratio (3T3-L1 [24]): 2.34; Ratio (3T3-L1 [25]): 2.1; Ratio (3T3-L1 [27]): 1.67; Ratio (3T3-L1 [28]): 1.93; Ratio (3T3-L1 [29]): 2.01; Ratio (3T3-L1 [30]): 1.91; Ratio (3T3-L1 [31]): 1.79
COc1ccc(-c2oc3cc(OC)cc(O)c3c(=O)c2OC)cc1	69.8		131.9	20.8		Dose-dependent effect				21.7	60.1	123.3	9.3	23	118.9	125.3	22.5	113.6	108.5	119.7	
O=c1c(O)c(-c2ccc(O)cc2)oc2cc(O)cc(O)c12 [KAEMPFEROL]	30.3			5.9						6.2	12.7			3.7			0.3				inhibition (3T3-L1 [37]): Dose-dependent effect
